Patent US11274283B2 (priority 2014, dated 2022)

What was measured:
[1] = tested on: Ralstonia solanacearum tyrosinase; assay type: biochemical; settings: up to 400 mM
mushroom tyrosinase [2] = settings: at 5 mM; scientific literature; cited from earlier work
mushroom tyrosinase [3] = assay: Inhibition of mushroom tyrosinase; assay type: biochemical; settings: cannot complete the reaction

SMILES: O=C1O[C@H]([C@@H](O)CO)C([O-])=C1O.[Na+] [ascorbic acid sodium salt]
- inhibition of Ralstonia solanacearum tyrosinase activity [1]: No inhibition

SMILES: O=C1O[C@H]([C@@H](O)CO)C(O)=C1O [ascorbic acid]
- inhibition of mushroom tyrosinase (mushroom tyrosinase [2]): inhibition

SMILES: OCCc1ccc(O)cc1 [tyrosol, 4-(2-hydroxyethyl)phenol]
- tyrosol concentration above which commercial mushroom tyrosinase is inhibited (mushroom tyrosinase [3]): above 10 g/l
